Data as given in US8158792B2, “Spiropiperidines for use as tryptase inhibitors” (Janssen Pharmaceutica N.V., priority 2007, dated 2012).

Target: human lung tryptase
Assay: β-Tryptase In-Vitro Enzyme Assay
Type: biochemical
Settings: human lung tryptase 1 nM, substrate H-D-HHT-Ala-Arg-pNa 500 μM, pH 7.4, room temperature
Experimental: The β-tryptase assay was conducted with human lung tryptase (Cortex Biochem #CP3033) in an aqueous buffer (10 mM Tris, 10 mM Hepes, 150 mM NaCl, 0.1% PEG 8000, pH 7.4) using the chromogenic substrate H-D-HHT-Ala-Arg-pNa. […] Percent inhibition was calculated by comparing the initial reaction velocity of samples without inhibitor to those with inhibitor. The initial reaction velocities were analyzed using Microsoft Excel.

Row | Structure (SMILES) | IC50
1 | NCc1ccc2c(c1)C1(CCN(C(=O)c3ccc(COc4ccccc4Br)o3)CC1)CO2 [Cpd 213, 1-[5-(2-bromo-phenoxymethyl)-furan-2-yl]carbonyl-5′-aminomethyl-spiro[piperidine-4,3′-(2H)-benzo[b]furan]] | 0.24 µM
2 | NCc1ccc2c(c1)C1(CCN(C(=O)c3sc(SCc4ccccc4)c4c3CCCC4=O)CC1)CO2 [Cpd 214, 1-(3-benzylthio-4-oxo-5,6,7-trihydro-4H-benzo[c]thien-1-yl)carbonyl-5′-aminomethyl-spiro[piperidine-4,3′-(2H)-benzo[b]furan]] | 0.0065 µM
3 | NCc1ccc2c(c1)C1(CCN(C(=O)C=C3OC(=O)c4ccccc43)CC1)CO2 [Cpd 215, 1-[1-oxo-2-(3-oxo-3H-isobenzofuran-1-ylidene)-ethyl]-5′-aminomethyl-spiro[piperidine-4,3′-(2H)-benzo[b]furan]] | 0.76 µM
4 | NCc1ccc2c(c1)C1(CCN(C(=O)c3ccc(CN4CCOCC4)o3)CC1)CO2 [Cpd 216, 1-(5-morpholin-4-ylmethyl-furan-2-yl)carbonyl-5′-aminomethyl-spiro[piperidine-4,3′-(2H)-benzo[b]furan]] | 1.7 µM
5 | NCc1ccc2c(c1)C1(CCN(C(=O)c3snnc3-c3ccccc3)CC1)CO2 [Cpd 217, 1-(4-phenyl-[1,2,3]thiadiazol-5-yl)carbonyl-5′-aminomethyl-spiro[piperidine-4,3′-(2H)-benzo[b]furan]] | 0.65 µM
6 | CSc1sc(C(=O)N2CCC3(CC2)COc2ccc(CN)cc23)c2c1CCCC2 [Cpd 218, 1-(3-methylthio-5,6,7-trihydro-4H-benzo[c]thien-1-yl)carbonyl-5′-aminomethyl-spiro[piperidine-4,3′-(2H)-benzo[b]furan]] | 0.008 µM
7 | CSc1sc(C(=O)N2CCC3(CC2)COc2ccc(CN)cc23)c2c1C=CCC2 [Cpd 219, 1-(3-methylthio-7-hydro-6H-benzo[c]thien-1-yl)carbonyl-5′-aminomethyl-spiro[piperidine-4,3′-(2H)-benzo[b]furan]] | 0.0029 µM
8 | Cc1occc1C(=O)NCc1ccc(C(=O)N2CCC3(CC2)COc2ccc(CN)cc23)o1 [Cpd 220, 1-[5-(2-methyl-furan-3-yl-carbonylaminomethyl)-furan-2-yl]carbonyl-5′-aminomethyl-spiro[piperidine-4,3′-(2H)-benzo[b]furan]] | 0.69 µM
9 | Cc1nn(-c2ccc(C(=O)N3CCC4(CC3)COc3ccc(CN)cc34)o2)c(C)c1Cl [Cpd 221, 1-[5-(3,5-dimethyl-4-chloro-pyrazol-1-yl)-furan-2-yl]carbonyl-5′-aminomethyl-spiro[piperidine-4,3′-(2H)-benzo[b]furan]] | 0.55 µM
10 | Cc1c(C(=O)N2CCC3(CC2)COc2ccc(CN)cc23)oc2c1C(=O)CC(c1ccccc1)C2 (centres unmarked) [Cpd 222, 1-(3-methyl-4-oxo-6-phenyl-5,6,7-trihydro-4H-benzo[b]furan-2-yl)carbonyl-5′-aminomethyl-spiro[piperidine-4,3′-(2H)-benzo[b]furan]] | 0.26 µM
11 | CCSc1sc(C(=O)N2CCC3(CC2)COc2ccc(CN)cc23)c2c1C(=O)CC(C)(C)C2 [Cpd 223, 1-(3-ethylthio-4-oxo-6,6-dimethyl-6,7-dihydro-5H-benzo[c]thien-1-yl)carbonyl-5′-aminomethyl-spiro[piperidine-4,3′-(2H)-benzo[b]furan]] | 0.021 µM
12 | C=CCc1ccc(OCc2ccc(C(=O)N3CCC4(CC3)COc3ccc(CN)cc34)o2)c(OC)c1 [Cpd 224, 1-[5-(2-methoxy-4-allyl-phenoxymethyl)-furan-2-yl]carbonyl-5′-aminomethyl-spiro[piperidine-4,3′-(2H)-benzo[b]furan]] | 0.28 µM
13 | CC(C)Sc1sc(C(=O)N2CCC3(CC2)COc2ccc(CN)cc23)c2c1C(=O)CC(C)(C)C2 [Cpd 225, 1-(3-isopropylthio-4-oxo-6,6-dimethyl-6,7-dihydro-5H-benzo[c]thien-1-yl)carbonyl-5′-aminomethyl-spiro[piperidine-4,3′-(2H)-benzo[b]furan]] | 0.047 µM
14 | Cc1c(C#N)sc2sc(C(=O)N3CCC4(CC3)COc3ccc(CN)cc34)c(C)c12 [Cpd 226, 1-(3,4-dimethyl-5-cyano-thieno[2,3-b]thien-2-yl)carbonyl-5′-aminomethyl-spiro[piperidine-4,3′-(2H)-benzo[b]furan]] | 3.2 µM
15 | COc1cccc(OCc2ccc(C(=O)N3CCC4(CC3)COc3ccc(CN)cc34)o2)c1 [Cpd 227, 1-[5-(3-methoxy-phenoxymethyl)-furan-2-yl]carbonyl-5′-aminomethyl-spiro[piperidine-4,3′-(2H)-benzo[b]furan]] | 0.044 µM
16 | Cc1c(C(=O)N2CCC3(CC2)COc2ccc(CN)cc23)oc2cc(-c3ccccc3)ccc12 [Cpd 228, 1-(3-methyl-6-phenyl-benzo[b]furan-2-yl)carbonyl-5′-aminomethyl-spiro[piperidine-4,3′-(2H)-benzo[b]furan]] | 0.037 µM
17 | CCCCSc1sc(C(=O)N2CCC3(CC2)COc2ccc(CN)cc23)c2c1C(=O)CCC2 [Cpd 229, 1-(3-butylthio-4-oxo-5,6,7-trihydro-4H-benzo[c]thien-1-yl)carbonyl-5′-aminomethyl-spiro[piperidine-4,3′-(2H)-benzo[b]furan]] | 0.0053 µM
18 | NCc1ccc2c(c1)C1(CCN(C(=O)c3sc4cc(Br)ccc4c3Cl)CC1)CO2 [Cpd 230, 1-(3-chloro-6-bromo-benzo[b]thien-2-yl)carbonyl-5′-aminomethyl-spiro[piperidine-4,3′-(2H)-benzo[b]furan]] | 0.14 µM

Row | Structure (SMILES) | IC50
19 | CCC(C)Sc1sc(C(=O)N2CCC3(CC2)COc2ccc(CN)cc23)c2c1C(=O)CC(C)(C)C2 (centres unmarked) [Cpd 231, 1-(3-sec-butylthio-4-oxo-6,6-dimethyl-6,7-dihydro-5H-benzo[c]thien-1-yl)carbonyl-5′-aminomethyl-spiro[piperidine-4,3′-(2H)-benzo[b]furan]] | 0.091 µM
20 | CC1(C)CC(=O)c2c(SCc3ccccc3)sc(C(=O)N3CCC4(CC3)COc3ccc(CN)cc34)c2C1 [Cpd 232, 1-(3-benzylthio-4-oxo-6,6-dimethyl-6,7-dihydro-5H-benzo[c]thien-1-yl)carbonyl-5′-aminomethyl-spiro[piperidine-4,3′-(2H)-benzo[b]furan]] | 0.015 µM
21 | NCc1ccc2c(c1)C1(CCN(C(=O)c3cc4ccsc4s3)CC1)CO2 [Cpd 233, 1-thieno[2,3-b]thien-2-ylcarbonyl-5′-aminomethyl-spiro[piperidine-4,3′-(2H)-benzo[b]furan]] | 0.082 µM
22 | CSc1sc(C(=O)N2CCC3(CC2)COc2ccc(CN)cc23)c2ccccc12 [Cpd 234, 1-(3-methylthio-benzo[c]thien-1-yl)carbonyl-5′-aminomethyl-spiro[piperidine-4,3′-(2H)-benzo[b]furan]] | 0.0095 µM
23 | COc1cccc2c(C(=O)N3CCC4(CC3)COc3ccc(CN)cc34)sc(SC)c12 [Cpd 235, 1-(3-methylthio-4-methoxy-benzo[c]thien-1-yl)carbonyl-5′-aminomethyl-spiro[piperidine-4,3′-(2H)-benzo[b]furan]] | 0.0092 µM
24 | NCc1ccc2c(c1)C1(CCN(C(=O)c3c[nH]c4ccccc34)CC1)CO2 [Cpd 236, 1-indol-3-ylcarbonyl-5′-aminomethyl-spiro[piperidine-4,3′-(2H)-benzo[b]furan]] | 0.75 µM
25 | Cn1cc(C(=O)N2CCC3(CC2)COc2ccc(CN)cc23)c2ccccc21 [Cpd 237, 1-(1-methyl-indol-3-yl)carbonyl-5′-aminomethyl-spiro[piperidine-4,3′-(2H)-benzo[b]furan]] | 0.27 µM
26 | COc1ccc2[nH]cc(C(=O)N3CCC4(CC3)COc3ccc(CN)cc34)c2c1 [Cpd 238, 1-(5-methoxy-indol-3-yl)carbonyl-5′-aminomethyl-spiro[piperidine-4,3′-(2H)-benzo[b]furan]] | 0.21 µM
27 | NCc1ccc2c(c1)C1(CCN(C(=O)c3cn(Cc4ccccc4)c4ccccc34)CC1)CO2 [Cpd 239, 1-(1-benzyl-indol-3-yl)carbonyl-5′-aminomethyl-spiro[piperidine-4,3′-(2H)-benzo[b]furan]] | 0.27 µM
28 | NCc1ccc2c(c1)C1(CCN(C(=O)c3sc(SCc4ccccc4)c4ccccc34)CC1)CO2 [Cpd 240, 1-(3-benzylthio-benzo[c]thien-1-yl)carbonyl-5′-aminomethyl-spiro[piperidine-4,3′-(2H)-benzo[b]furan]] | 0.0018 µM
29 | NCc1ccc2c(c1)C1(CCN(C(=O)c3sc(SCc4ccccc4)c4c3CCC=C4)CC1)CO2 [Cpd 241, 1-(3-benzylthio-7-hydro-6H-benzo[c]thien-1-yl)carbonyl-5′-aminomethyl-spiro[piperidine-4,3′-(2H)-benzo[b]furan]] | 0.0051 µM
30 | NCc1ccc2c(c1)C1(CCN(C(=O)/C=C\c3ccco3)CC1)CO2 [Cpd 242, (Z)-1-(furan-2-ylethenyl)carbonyl-5′-aminomethyl-spiro[piperidine-4,3′-(2H)-benzo[b]furan]] | 0.65 µM
31 | NCc1ccc2c(c1)C1(CCN(C(=O)/C=C\c3c[nH]cn3)CC1)CO2 [Cpd 243, (Z)-1-(imidazol-4-ylethenyl)carbonyl-5′-aminomethyl-spiro[piperidine-4,3′-(2H)-benzo[b]furan]] | 3.1 µM
32 | NCc1ccc2c(c1)C1(CCN(C(=O)/C=C/c3ccncc3)CC1)CO2 [Cpd 244, (E)-1-(pyridin-4-ylethenyl)carbonyl-5′-aminomethyl-spiro[piperidine-4,3′-(2H)-benzo[b]furan]] | 2.5 µM
33 | NCc1ccc2c(c1)C1(CCN(C(=O)c3ccc(C=O)s3)CC1)CO2 [Cpd 245, 1-(5-formyl-thien-2-yl)carbonyl-5′-aminomethyl-spiro[piperidine-4,3′-(2H)-benzo[b]furan]] | 0.51 µM
34 | NCc1ccc2c(c1)C1(CCN(C(=O)c3cc4c(s3)CCC4)CC1)CO2 [Cpd 246, 1-(5,6-dihydro-4H-cyclopenta[b]thien-2-yl)carbonyl-5′-aminomethyl-spiro[piperidine-4,3′-(2H)-benzo[b]furan]] | 0.2 µM
35 | CSc1ccc(C(=O)N2CCC3(CC2)COc2ccc(CN)cc23)s1 [Cpd 247, 1-(5-methylthio-thien-2-yl)carbonyl-5′-aminomethyl-spiro[piperidine-4,3′-(2H)-benzo[b]furan]] | 0.036 µM
